Experimental data taken from patent publication US20180148418A1, “AMIDO-SUBSTITUTED CYCLOHEXANE DERIVATIVES” (Bayer Pharma Aktiengesellschaft, priority 2015, published 2018).

These compounds were tested against T1, TNKS2 (Homo sapiens, UniProt Q9H2K2) (assay: TNKS2 Assay B (auto-parsylation, [3H]-NAD+ SPA)). Details: 6 nM TNKS2, auto-parsylation, over night at room temperature.
T1 construct: purchased BPS Bioscience, San Diego, USA 80572 (TNKS2 Histone Ribosylation Assay Kit)
T1 sequence (Q9H2K2 1-1166): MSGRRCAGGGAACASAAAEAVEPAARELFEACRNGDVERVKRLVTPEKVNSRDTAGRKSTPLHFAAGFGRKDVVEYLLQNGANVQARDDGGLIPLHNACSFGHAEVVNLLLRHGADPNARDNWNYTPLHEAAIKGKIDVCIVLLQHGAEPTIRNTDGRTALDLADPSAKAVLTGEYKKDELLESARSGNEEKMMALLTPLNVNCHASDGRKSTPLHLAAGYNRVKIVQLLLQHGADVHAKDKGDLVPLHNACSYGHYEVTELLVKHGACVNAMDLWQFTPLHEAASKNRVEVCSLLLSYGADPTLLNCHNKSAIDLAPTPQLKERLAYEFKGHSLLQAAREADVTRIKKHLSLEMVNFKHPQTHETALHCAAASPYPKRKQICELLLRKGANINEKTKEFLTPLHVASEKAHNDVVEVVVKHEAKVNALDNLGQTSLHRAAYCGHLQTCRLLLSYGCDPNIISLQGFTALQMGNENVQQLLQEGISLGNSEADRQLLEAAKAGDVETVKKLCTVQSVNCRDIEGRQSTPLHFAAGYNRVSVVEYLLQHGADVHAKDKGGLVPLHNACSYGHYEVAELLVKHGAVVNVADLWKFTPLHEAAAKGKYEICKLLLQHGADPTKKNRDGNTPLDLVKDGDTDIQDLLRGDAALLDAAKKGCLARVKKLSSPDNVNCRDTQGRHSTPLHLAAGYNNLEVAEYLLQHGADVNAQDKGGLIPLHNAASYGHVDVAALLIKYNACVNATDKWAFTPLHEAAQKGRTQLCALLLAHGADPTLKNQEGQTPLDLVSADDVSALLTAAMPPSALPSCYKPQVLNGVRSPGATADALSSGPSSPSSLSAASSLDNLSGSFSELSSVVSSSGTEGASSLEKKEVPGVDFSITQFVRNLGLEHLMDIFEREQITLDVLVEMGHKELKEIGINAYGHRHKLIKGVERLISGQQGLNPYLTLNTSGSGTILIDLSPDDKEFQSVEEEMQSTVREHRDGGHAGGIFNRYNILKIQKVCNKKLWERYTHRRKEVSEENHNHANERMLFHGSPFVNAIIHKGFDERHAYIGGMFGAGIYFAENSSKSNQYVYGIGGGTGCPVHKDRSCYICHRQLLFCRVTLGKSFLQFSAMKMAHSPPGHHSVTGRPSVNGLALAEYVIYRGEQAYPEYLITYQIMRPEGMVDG
Assay type: biochemical

Compound | IC50
CCNC(=O)c1nc[nH]c1C(=O)N[C@H]1CC[C@@]2(CCN(c3ccccc3Cl)C2=O)CC1 [Example 258, N^5-[(trans)-2-(2-chlorophenyl)-1-oxo-2-azaspiro[4.5]dec-8-yl]-N^4-ethyl-1H-imidazole-4,5-dicarboxamide] | 0.0063 µM
CN1CC(NC(=O)c2nc[nH]c2C(=O)N[C@H]2CC[C@@]3(CCN(c4ccc(F)cc4Cl)C3=O)CC2)C1 [Example 187, N^5-[(trans)-2-(2-chloro-4-fluorophenyl)-1-oxo-2-azaspiro[4.5]dec-8-yl]-N^4-(1-methylazetidin-3-yl)-1H-imidazole-4,5-dicarboxamide] | 0.0043 µM
CNC(=O)c1nc[nH]c1C(=O)N[C@H]1CC[C@@]2(CCN(c3ccccc3Cl)C2=O)CC1 [Example 264, N^5-[(trans)-2-(2-chlorophenyl)-1-oxo-2-azaspiro[4.5]dec-8-yl]-N^4-methyl-1H-imidazole-4,5-dicarboxamide] | 0.004 µM
NC(=O)c1nc[nH]c1C(=O)N[C@H]1CC[C@@]2(CCN(c3ccc(F)cc3Cl)C2=O)CC1 [Example 186, N^5-[(trans)-2-(2-chloro-4-fluorophenyl)-1-oxo-2-azaspiro[4.5]dec-8-yl]-1H-imidazole-4,5-dicarboxamide] | 0.0074 µM
Cc1cc(N(C)C(=O)[C@H]2CC[C@H](NC(=O)c3cnn4cccnc34)CC2)c(Cl)cc1F [Example 176, N-{trans-4-[(2-chloro-4-fluoro-5-methylphenyl)(methyl)carbamoyl]cyclohexyl}pyrazolo[1,5-a]pyrimidine-3-carboxamide] | 0.13 µM
CCNC(=O)c1nc[nH]c1C(=O)N[C@H]1CC[C@H](C(=O)Nc2ccc(F)cc2Cl)CC1 [Example 15, N^5-{trans-4-[(2-chloro-4-fluorophenyl)carbamoyl]cyclohexyl}-N^4-ethyl-1H-imidazole-4,5-dicarboxamide] | 0.042 µM
CNC(=O)c1nc[nH]c1C(=O)N[C@H]1CC[C@H](C(=O)N(C)c2ccccc2)CC1 [Example 171, N^4-methyl-N^5-{trans-4-[methyl(phenyl)carbamoyl]cyclohexyl}-1H-imidazole-4,5-dicarboxamide] | 0.15 µM
Cc1cc(C)n2ncc(C(=O)N[C@H]3CC[C@@]4(CCN(c5ccccc5Cl)C4=O)CC3)c2n1 [Example 257, N-[(trans)-2-(2-chlorophenyl)-1-oxo-2-azaspiro[4.5]dec-8-yl]-5,7-dimethylpyrazolo[1,5-a]pyrimidine-3-carboxamide] | 0.0057 µM
O=C(N[C@H]1CC[C@H](C(=O)N(CC2CC2)c2ccc(F)cc2Cl)CC1)c1cnn2cccnc12 [Example 177, N-{trans-4-[(2-chloro-4-fluorophenyl)(cyclopropylmethyl)carbamoyl]cyclohexyl}pyrazolo[1,5-a]pyrimidine-3-carboxamide] | 0.0092 µM
Cc1cc(N2CC[C@]3(CC[C@@H](NC(=O)c4cnn5cccnc45)CC3)C2=O)c(Cl)cc1F [Example 267, N-[(trans)-2-(2-chloro-4-fluoro-5-methylphenyl)-1-oxo-2-azaspiro[4.5]dec-8-yl]pyrazolo[1,5-a]pyrimidine-3-carboxamide] | 0.0052 µM
COCCNC(=O)c1nc[nH]c1C(=O)N[C@H]1CC[C@H](C(=O)Nc2ccc(F)cc2Cl)CC1 [Example 19, N^5-{trans-4-[(2-chloro-4-fluorophenyl)carbamoyl]cyclohexyl}-N^4-(2-methoxyethyl)-1H-imidazole-4,5-dicarboxamide] | 0.16 µM
CCNC(=O)c1nc[nH]c1C(=O)N[C@H]1CC[C@@]2(CCN(c3cc(F)c(F)cc3Cl)C2=O)CC1 [Example 197, N^5-[(trans)-2-(2-chloro-4,5-difluorophenyl)-1-oxo-2-azaspiro[4.5]dec-8-yl]-N^4-ethyl-1H-imidazole-4,5-dicarboxamide] | 0.0021 µM

The remaining compounds from weak to strong by IC50, led by results:

IC50 | Compound
1 µM | CNC(=O)c1nc[nH]c1C(=O)N[C@H]1CC[C@]2(CCN(c3ccc(F)cc3Cl)C2=O)CC1 [Example 182, N^5-[(cis)-2-(2-chloro-4-fluorophenyl)-1-oxo-2-azaspiro[4.5]dec-8-yl]-N^4-methyl-1H-imidazole-4,5-dicarboxamide]
0.48 µM | CNC(=O)c1nc[nH]c1C(=O)N[C@H]1CC[C@H](C(=O)N(C)c2ccccc2C)CC1 [Example 203, N^4-methyl-N^5-{trans-4-[methyl(2-methylphenyl)carbamoyl]cyclohexyl}-1H-imidazole-4,5-dicarboxamide]
0.34 µM | Cc1nn2cccnc2c1C(=O)N[C@H]1CC[C@@]2(CCN(c3ccc(F)cc3Cl)C2=O)CC1 [Example 216, N-[(trans)-2-(2-chloro-4-fluorophenyl)-1-oxo-2-azaspiro[4.5]dec-8-yl]-2-methylpyrazolo[1,5-a]pyrimidine-3-carboxamide]
0.29 µM | O=C(N[C@H]1CC[C@@]2(CCN(c3cccc(Cl)c3)C2=O)CC1)c1cnc2cccnn12 [Example 269, N-[(trans)-2-(3-chlorophenyl)-1-oxo-2-azaspiro[4.5]dec-8-yl]imidazo[1,2-b]pyridazine-3-carboxamide]
0.24 µM | CNC(=O)c1nc[nH]c1C(=O)N[C@H]1CC[C@H](C(=O)Nc2cccnc2Cl)CC1 [Example 10, N^5-{trans-4-[(2-chloropyridin-3-yl)carbamoyl]cyclohexyl}-N^4-methyl-1H-imidazole-4,5-dicarboxamide]
0.23 µM | Cc1ccccc1N(C)C(=O)[C@H]1CC[C@H](NC(=O)c2cnn3cccnc23)CC1 [Example 178, N-{trans-4-[methyl(2-methylphenyl)carbamoyl]cyclohexyl}pyrazolo[1,5-a]pyrimidine-3-carboxamide]
0.18 µM | CNC(=O)c1nc[nH]c1C(=O)N[C@H]1CC[C@H](C(=O)N(C)c2ccc(F)cc2Cl)CC1 [Example 173, N^5-{trans-4-[(2-chloro-4-fluorophenyl)(methyl)carbamoyl]cyclohexyl}-N^4-methyl-1H-imidazole-4,5-dicarboxamide]
0.16 µM | COCCNC(=O)c1nc[nH]c1C(=O)N[C@H]1CC[C@@]2(CCN(c3cccc(Cl)c3)C2=O)CC1 [Example 282, N^5-[(trans)-2-(3-chlorophenyl)-1-oxo-2-azaspiro[4.5]dec-8-yl]-N^4-(2-methoxyethyl)-1H-imidazole-4,5-dicarboxamide]
0.09 µM | O=C(NC1CC1)c1nc[nH]c1C(=O)N[C@H]1CC[C@H](C(=O)Nc2ccc(F)cc2Cl)CC1 [Example 17, N^5-{trans-4-[(2-chloro-4-fluorophenyl)carbamoyl]cyclohexyl}-N^4-cyclopropyl-1H-imidazole-4,5-dicarboxamide]
0.089 µM | CNC(=O)c1nc[nH]c1C(=O)N[C@H]1CC[C@@]2(CCN(c3cccc(Cl)c3)C2=O)CC1 [Example 276, N^5-[(trans)-2-(3-chlorophenyl)-1-oxo-2-azaspiro[4.5]dec-8-yl]-N^4-methyl-1H-imidazole-4,5-dicarboxamide]
0.083 µM | O=C(NCC(F)(F)F)c1nc[nH]c1C(=O)N[C@H]1CC[C@H](C(=O)Nc2ccc(F)cc2Cl)CC1 [Example 21, N^5-{trans-4-[(2-chloro-4-fluorophenyl)carbamoyl]cyclohexyl}-N^4-(2,2,2-trifluoroethyl)-1H-imidazole-4,5-dicarboxamide]
0.019 µM | O=C(NCCN1CCOCC1)c1nc[nH]c1C(=O)N[C@H]1CC[C@H](C(=O)Nc2ccc(F)cc2Cl)CC1 [Example 13, N^5-{trans-4-[(2-chloro-4-fluorophenyl)carbamoyl]cyclohexyl}-N^4-[2-(morpholin-4-yl)ethyl]-1H-imidazole-4,5-dicarboxamide]
0.012 µM | O=C(N[C@H]1CC[C@@]2(CCN(c3ccccc3Cl)C2=O)CC1)c1cnn2cccnc12 [Example 256, N-[(trans)-2-(2-chlorophenyl)-1-oxo-2-azaspiro[4.5]dec-8-yl]pyrazolo[1,5-a]pyrimidine-3-carboxamide]
0.0062 µM | CN1CC2(CCN(C(=O)c3nc[nH]c3C(=O)N[C@H]3CC[C@@]4(CCN(c5ccc(F)cc5Cl)C4=O)CC3)C2)C1 [Example 184, N-[(trans)-2-(2-chloro-4-fluorophenyl)-1-oxo-2-azaspiro[4.5]dec-8-yl]-4-[(2-methyl-2,6-diazaspiro[3.4]oct-6-yl)carbonyl]-1H-imidazole-5-carboxamide]
0.0033 µM | O=C(N[C@H]1CC[C@@]2(CCN(c3ccc(F)cc3Cl)C2=O)CC1)c1cnn2ccc(N3CCCC3)nc12 [Example 232, N-[(trans)-2-(2-chloro-4-fluorophenyl)-1-oxo-2-azaspiro[4.5]dec-8-yl]-5-(pyrrolidin-1-yl)pyrazolo[1,5-a]pyrimidine-3-carboxamide]
